Laboratory results published in patent US20080269162A1, “Novel Medicaments for Anti-Retroviral Treatments” (priority 2006, published 2008).
Where “and” joins values, the source holds several entries; their conditions need not be identical. Equal values may be shown once.

How the values were obtained:
RT of the NDK virus = target: T1, RT of the NDK virus (Human immunodeficiency virus type 1 group M subtype D, UniProt P18802); experiment: Direct inhibitory action on RT of the NDK virus; type: biochemical, HIV; conditions: viral concentration corresponding to RT activity of 81,000 dpm, FIG. 9
T1 construct: host or cells: virus preparation (native virion RT)
Excerpt: (§1) In order to perform these measurements, the method described in detail hereinbefore was followed (Example 2).

RT of the UG92029 virus = experiment: Direct inhibitory action on RT of the UG92029 virus; type: biochemical, HIV; conditions: viral concentration corresponding to RT activity of 220,000 dpm, FIG. 7
Excerpt: as §1

CEM cells = experiment: In vitro cytotoxicity, number of CEM cells
RT of the PIC CH virus = experiment: Direct inhibitory action on RT of the PIC CH virus; type: biochemical, HIV; conditions: viral concentration corresponding to RT activity of 105,000 dpm, FIG. 8
Excerpt: as §1

NDK virus = experiment: Number of syncitia in MT4 cell culture infected by NDK virus; type: cell-based, HIV; set-up: key to Number of Syncitia in the Culture (wells), J3 / Number of Syncitia in the Culture (wells), J4 / Number of Syncitia in the Culture (wells), J5 / Number of Syncitia in the Culture (wells), J6: the absence of syncitia is indicated by a minus (−) sign; the (+), +, ++, ++T signs indicate an increasing number of syncitia in each well; the (+), +, ++, ++T signs indicate an increasing number of syncitia in each well; the (+), +, ++, ++T signs indicate an increasing number of syncitia in each well; the (+), +, ++, ++T signs indicate an increasing number of syncitia in each well; The indication “T” indicates the death of the cells; conditions: 10 μg/mL; for Number of Syncitia in the Culture (wells), J3: day 3; for Number of Syncitia in the Culture (wells), J4: day 4; for Number of Syncitia in the Culture (wells), J5: day 5; for Number of Syncitia in the Culture (wells), J6: day 6
Description: Then infection of the cells was carried out by adding to each well, with the exception of those wells being used as control cells, 50 μL of previously titrated virus dilution.
After an additional hour of incubation, the plate was centrifuged and the supernatant containing the residual virus was discarded.
After 3 days of culture, the cells were diluted to half and the syncitia were observed using the inverse microscope from day 3 to day 7 after having been placed in suspension.
In the third case, the MT4 cell culture was preincubated for one hour at 37° C., then the cells were infected, the whole was subjected to incubation for one hour at 37° C., then to centrifugation with the elimination of the supernatant containing the virus that had not penetrated into the cells.
In each of the four types of experiments that have just been described, and as previously indicated, the cells were diluted to half after three days of culture and then the syncitia were observed using the inverted microscope from day 3 to day 7.
In the experiments described in greater detail hereinafter, the absence of syncitia is indicated by a minus (−) sign and the (+), +, ++, ++T signs indicate an increasing number of syncitia in each well.
The indication “T” indicates the death of the cells.

[1] = Continuous, before, during and after infection

Dextran sulphate
inhibition of RT (RT of the NDK virus; 0.6 μg/mL): 11% | inhibition of RT (RT of the NDK virus; 0.8 μg/mL): 18% | inhibition of RT (RT of the UG92029 virus; 2.5 μg/mL): 6% | inhibition of RT (RT of the UG92029 virus; 3 μg/mL): 8% | Number of CEM cells (CEM cells; Day 1, 125 μg/mL): 500000 mL⁻¹ and 900000 mL⁻¹ | Number of CEM cells (CEM cells; Day 1, 250 μg/mL): 500000 mL⁻¹ and 900000 mL⁻¹ | Number of CEM cells (CEM cells; Day 1, 1000 μg/mL): 800000 mL⁻¹ and 500000 mL⁻¹ | Number of CEM cells (CEM cells; Day 2, 125 μg/mL): 1.5e+06 mL⁻¹ and 1e+06 mL⁻¹ | Number of CEM cells (CEM cells; Day 2, 250 μg/mL): 1.3e+06 mL⁻¹ and 1.4e+06 mL⁻¹ | Number of CEM cells (CEM cells; Day 2, 500 μg/mL): 1.3e+06 mL⁻¹ and 1.7e+06 mL⁻¹ | Number of CEM cells (CEM cells; Day 2, 1000 μg/mL): 1.3e+06 mL⁻¹ and 1.7e+06 mL⁻¹ | Number of CEM cells (CEM cells; Day 3, 125 μg/mL): 2.3e+06 mL⁻¹ and 2.1e+06 mL⁻¹ | Number of CEM cells (CEM cells; Day 3, 250 μg/mL): 1.9e+06 mL⁻¹ | Number of CEM cells (CEM cells; Day 3, 500 μg/mL): 2.1e+06 mL⁻¹ and 1.5e+06 mL⁻¹ | Number of CEM cells (CEM cells; Day 3, 1000 μg/mL): 2e+06 mL⁻¹ and 2.7e+06 mL⁻¹ | inhibition of RT (RT of the PIC CH virus; 0.6 μg/mL): does not produce any inhibition at all | inhibition of RT (RT of the PIC CH virus; 0.8 μg/mL): still does not induce any inhibition | Number of Syncitia in the Culture (wells), J3 (NDK virus; After infection): − | Number of Syncitia in the Culture (wells), J4 (NDK virus; After infection): − and + | Number of Syncitia in the Culture (wells), J5 (NDK virus; After infection): − and ++ | Number of Syncitia in the Culture (wells), J6 (NDK virus; After infection): − and T | Number of Syncitia in the Culture (wells), J3 (NDK virus; Before infection): − | Number of Syncitia in the Culture (wells), J4 (NDK virus; Before infection): − | Number of Syncitia in the Culture (wells), J5 (NDK virus; Before infection): − | Number of Syncitia in the Culture (wells), J6 (NDK virus; Before infection): − | Number of Syncitia in the Culture (wells), J3 (NDK virus; [1]): − | Number of Syncitia in the Culture (wells), J4 (NDK virus; [1]): + | Number of Syncitia in the Culture (wells), J5 (NDK virus; [1]): ++ | Number of Syncitia in the Culture (wells), J6 (NDK virus; [1]): T | Number of Syncitia in the Culture (wells), J3 (NDK virus; During infection): − | Number of Syncitia in the Culture (wells), J4 (NDK virus; During infection): − and (+) | Number of Syncitia in the Culture (wells), J5 (NDK virus; During infection): − and ++ | Number of Syncitia in the Culture (wells), J6 (NDK virus; During infection): ++ and T | wells inhibited (NDK virus; cells treated before viral infection): 2 wells out of 2 inhibited
